Patent US7179645B2 (priority 2002, dated 2007)
Where a SMILES comes first, the peptide text is derived from it. [ ]: non-standard residue; d: D form. The star is where a group is joined. Nle = CCCC[C@H](N)C(=O)O; Cbz = O=C(OCc1ccccc1)*; ava = not defined here

Legend:
[1] = tested on: orthopoxviruses, including variola; conditions: cited from earlier work
[2] = tested on: primary mouse macrophages and macrophage-like cell lines; conditions: cited from earlier work
[3] = tested on: SKOV3.A2; conditions: cited from earlier work
[4] = tested on: early stage breast cancer patients; conditions: in vivo; cited from earlier work
[5] = tested on: C3H/HeJ mice (H-2^k); antibodies against the PGCC(95–104) epitope peptide; conditions: mouse, in vivo
[6] = tested on: C3H/HeJ(H-2^k) mice; splenic T cells; type: in vivo, mouse; conditions: for IFN-γ/Th-1 responses to the HIV gp160(843–855) epitope (ELISPOT): C3H/HeJ mice, 40 nmole, boosts day 13 and 31, spleens day 35
Experimental: An ELISPOT assay for IFN-γ cytokine responses was performed in order to titer more exactly splenic T lymphocyte subset responses to immunization with Ii-Key-ava-gp160(843–855) or gp160(843–855). The assay was performed as follows. A solution of the cytokine-specific capture antibody (100 μl at 6 μg/ml in phosphate-buffered saline solution, pH 7.2) was added to each well of a 96-well Immunospot plate (M200) for an overnight incubation at 4° C. After aspiration, phosphate-buffer saline solution 200 μl containing 10% fetal bovine serum and 1% penicillin-streptomycin-glutamine (mouse medium) was added to each well for 2 hr at RT. After washing four times with 1% Tween-20 in phosphate-buffered saline solution (wash buffer I), 100 μl of single cell suspensions from the spleens of immunized mice at 10^6 cells/well were re-stimulated with 100 μl of peptide-epitope at 5 μg/well in mouse medium and incubated for 20–40 hr at 37° C., 5% CO2. After washing twice with phosphate-buffered saline solution (wash buffer II) and four times with wash buffer 1,100 μl of 2 μg/ml biotinylated anti-mouse IFN-γ in 1× phosphate buffer saline with 10% fetal bovine serum (dilution buffer) was added to each well for 2 hr at RT. After washing five times with wash buffer 1,100 μl of streptavidin-horse radish peroxidase conjugate (1:500) in dilution buffer was added to each well for 1 hr at RT. After washing four times with wash buffer I and two times with wash buffer II, 100 μl of the 3-amino-9-ethylcarbazole/H2O2 substrate (Pharmingen 551951) was added and incubated for 30–60 min in the dark at RT. The reaction was stopped by washing three times with 200 μl of deionized water. ELISPOT data analysis was performed by using the Immunospot 1.7e software (Cellular Limited Technology). Digitized images of quadruplicate wells were analyzed for the presence of spots in which color density exceeds background based on comparison of control cells (naive splenocytes) and experimental cells (splenocytes of immunized mice) cells. Additional counting parameters for spot size and circularity were applied to gate out speckles caused by non-specific antibody binding. Each spot represents a single cell secreting IFN-γ.
C3H/HeJ(H-2^k) mice were immunized with 40 nmole of peptides (50 μl) emulsified with equal volume of incomplete Freund's adjuvant (IFA), subcutaneously at the base of the tail. On day 13 the mice were boosted subcutaneously at the base of the tail with 40 nmole of peptides (50 μl) emulsified with equal amount of incomplete Freund's adjuvant (IFA). On day 31, the mice were boosted intravenously with 40 nmole peptides dissolved in 100 μl Hank's balanced salts solution (HBSS). […]

[7] = tested on: B10.A (5R) mice; antibodies against the HIV gp160(843–855) peptide; type: in vivo, mouse; conditions: peptides in saline solution; for Antibody induction (ELISA), Dilution^−1 20: serum day 35, against HIV gp160(843–855) peptide, serum dilution^−1 20; for Antibody induction (ELISA), Dilution^−1 60: serum day 35, serum dilution^−1 60; for Antibody induction (ELISA), Dilution^−1 180: serum day 35, serum dilution^−1 180; for Antibody induction (ELISA), Dilution^−1 540: serum day 35, serum dilution^−1 540
Experimental: An ELISA assay for antibody responses following immunization with the experimental peptides indicated above was performed as follows. Fifty microliters (μl) of a solution of the coating peptide at 2 μg/well in 0.1 M carbonate buffer, pH 9.5 was added to each well of a 96-well Nunc-immunoplate (#442404) for an overnight incubation at 4° C. After aspiration, 250 μl of phosphate-buffer saline solution containing 3% fetal bovine serum (assay diluent) was added to each well for 2 hr at RT. After washing three times with assay diluent, 50 μl of 20-times diluted mouse serum in 1:3 serial dilution in assay diluent was added to each well for 2 hr at RT. After washing three times with assay diluent, 50 μl of 1 μg/ml biotinylated goat anti-mouse IgG1 or IgG2a was added to each well and incubated for 1 hr at RT. After washing three times with assay diluent, 50 μl of streptavidin-horse radish peroxidase conjugate (1:1000) was added to each well and incubated for 30 min at RT. After washing three times with assay diluent, 100 μl of tetramethylbenzidine/H2O2 solution (Pharmingen 264 KK) was added to each well for 15 min in the dark at room temperature. The reaction was stopped with 100 μl 1N H2SO4 in each well and the absorbance was read immediately at 450 nm.
B10.A (5R) mice (H-2) were immunized with 20 nmole of peptides in 50 μl phosphate-buffered saline solution, intramuscularly in right and left rear legs on days 1 and 2, respectively. On day 14 the mice were boosted intramuscularly with 40 nmole of peptides in 200 μl Hank's balanced salts solution intramuscularly in a rear leg. On day 30 the mice were boosted intravenously with 40 nmole peptides dissolved in Hank's balanced salts solution (HBSS). On day 35 the mice were sacrificed and serum samples were assayed for antibody titers against the HIV gp160(843–855) peptide.

[8] = tested on: tumor cells expressing HLA-A24 and CEA; conditions: cited from earlier work
[9] = tested on: lymphocytes from HLA-B7+ normal blood donors; conditions: cited from earlier work
[10] = tested on: mice in an ovalbumin-induced asthmatic response; conditions: mouse, in vivo; cited from earlier work
[11] = tested on: HLA alleles of the A2 supertype (A2.2, A2.3, A2.6 and A6802); conditions: cited from earlier work
[12] = tested on: MBP-specific autoantibodies in the CSF; conditions: human, in vivo; cited from earlier work
[13] = tested on: patients with resected melanoma; conditions: human, in vivo; cited from earlier work
[14] = tested on: B10(A) 5R mice; splenic CD3+/CD4+ T-helper cells; type: in vivo, mouse; conditions: splenic cells day 26, double color FACS
Text: To test the mechanism for the much greater immunogenecity of Ii-Key/epitope hybrids epitope peptides, B10(A) 5R mice were immunized with 10 nmole of either gp160(843–855) peptide or Ii-Key/gp160(843–855) in CFA subcutaneously at the right side of the base of the tail. On day 10 the mice were boosted with 40 nmole of hybrid peptide or epitope peptide in saline by intravenous injection. On day 26 mice were sacrificed and splenic cells were obtained. 1×10^6 splenic mononuclear cells were stimulated overnight in the presence of 10 units of recombinant IL-2 and indicated peptides (10 μg/ml). During the last 3 hours of incubation, 2 μM monensin (Golgi-stop, Pharmingen) was added to the cultures, and cells were then stained for both cellular surface markers and intracellular IFN-γ. The FACS assay to quantify antigen specific Th1 helper cell responses was performed as follows. The cells were incubated with 1 μg […] (FC/block, Pharmingen) per 10^6 cells in 100 μl of staining buffer (Dulbecco's phosphate-buffered saline solution without magnesium or calcium). Those cells were stained at 10^6 cells/100 μl with either rat-anti-mouse CD3 or CD4 monoclonal antibodies for 30 min at 4° C. After washing, the cells were re-suspended, fixed with 4% formaldehyde, and permeablized with 0.5% saponin for 20 min at 4° C. The cells were suspended in staining buffer with 0.5% saponin, and stained with the appropriate anti-cytokine or isotype control antibody (IFN-γ, XMG1.2, Pharmingen or IFN-γ isotype control, R3–34, Pharmingen). The cells were incubated for 30 min at 4° C. in the dark, washed and fixed for 10 min with 0.3% formaldehyde in 0.5% saponins in staining buffer for flow cytometric analysis. Flow cytometric analysis was performed as follows. First, CD3^+ cells were gated using dual color dot plot of side scatter versus CD3 FITC as the T-gate population. The CD3^+ cells were then analyzed for CD4 expression to target the CD3^+/CD4^+ T-helper cell population. […]

[15] = IFN-γ ELISPOT, C3H/HeJ(H-2^k) mice, spleens day 35, re-stimulated with HIV gp160(843–855) peptide

Compound: Nc1ccn(C[C@@H](CO)OCP(=O)(O)O)c(=O)n1 [Cidofivir]
- activity against orthopoxviruses [1]: shows activity

Compound: CC(C)C[C@@H](C=O)NC(=O)[C@H](CC(C)C)NC(=O)[C@H](CC(C)C)NC(=O)OCc1ccccc1 [MG132] (Cbz-Leu-Leu-Leu-aldehyde)
- LeTx cytotoxicity [2]: efficiently block

Compound: CCCC[C@@H](C=O)NC(=O)[C@H](CC(C)C)NC(=O)[C@H](CC(C)C)NC(C)=O [acetyl-Leu-Leu-norleucinal] (Ac-Leu-Leu-[Nle]-aldehyde)
- presentation of the CTL epitope Her-2/neu(369–377) [3]: inhibited

Compound: CC(=O)N[C@@H](CSC(=O)[C@]1([C@@H](O)C(C)C)NC(=O)[C@H](C)[C@@H]1O)C(=O)O [lactacystin]
- LeTx cytotoxicity [2]: efficiently block

Compound: CC/C(=C(\c1ccccc1)c1ccc(OCCN(C)C)cc1)c1ccccc1 [tamoxifen]
- overall survival [4]: benefited overall survival
- survival [4]: did not improve survival

Compound: Ac-IAYLKQATAK-NH2 [PGCC, reference compound]
- Antibody induction (ELISA), Dilution^−1 1620 [5]: −0.003
- Antibody induction (ELISA), Dilution^−1 4860 [5]: 0.003

Compound: Ac-LRMK-AYRAIRHIPR-NH2 [gp160(843–855)]
- IFN-γ/Th-1 responses to the HIV gp160(843–855) epitope (ELISPOT) [6]: IFN-γ/Th-1 responses were elicited

Compound: Ac-LRMK-ava-YRAIRHIPR-NH2 [Ii-Key/one-ava/gp160(844–855)]
- IFN-γ/Th-1 responses to the HIV gp160(843–855) epitope (ELISPOT) [6]: IFN-γ/Th-1 responses were elicited

Compound: Gp160 (843–855) (LRMKAYRAIRHIPR)
- Antibody induction (ELISA), Dilution^−1 20 [7]: 0.052
- Antibody induction (ELISA), Dilution^−1 60 [7]: 0.023
- Antibody induction (ELISA), Dilution^−1 180 [7]: 0.000
- Antibody induction (ELISA), Dilution^−1 540 [7]: −0.005

Compound: HLFYSWYK [9.5.6]
- elicitation of CTL lines lysing tumor cells expressing HLA-A24 and CEA [8]: elicited CTL lines that lysed tumor cells

Compound: IPQQHTQVL [CEA9(632)]
- primary CTL responses [9]: induced primary CTL responses

Compound: ISQAVHAAHAEINAAGR [336E-A]
- airway eosinophilia and OVA-specific IL-4 and IL-5 production [10]: significant decrease

Compound: Ii-Key/one-ava/gp160 (843–855) (Ac-LRMK[ava]AYRAIRHIPR-NH2; reading uncertain)
- Antibody induction (ELISA), Dilution^−1 20 [7]: 0.600
- Antibody induction (ELISA), Dilution^−1 60 [7]: 0.157
- Antibody induction (ELISA), Dilution^−1 180 [7]: 0.073
- Antibody induction (ELISA), Dilution^−1 540 [7]: 0.024

Compound: Ii-Key/two-ava/gp160 (843–855) (Ac-LRMK[ava][ava]AYRAIRHIPR-NH2; reading uncertain)
- Antibody induction (ELISA), Dilution^−1 20 [7]: 0.131
- Antibody induction (ELISA), Dilution^−1 60 [7]: 0.039
- Antibody induction (ELISA), Dilution^−1 180 [7]: 0.027
- Antibody induction (ELISA), Dilution^−1 540 [7]: 0.003

Compound: LMTFWNPPV [9.5.2]
- binding to other common HLA alleles of the A2 supertype [11]: bound tightly
- anti-tumor CTL responses [8]: induced vigorous anti-tumor CTL responses

Compound: P85VVHFFKNIVTP96 (PVVHFFKNIVTP; listed as Homo sapiens)
- neurological or systemic side effects [12]: No neurological or systemic side effects were observed
- tolerance to MBP [12]: induced tolerance

Compound: QYSWFVNGTF [9.5.4]
- elicitation of CTL lines lysing tumor cells expressing HLA-A24 and CEA [8]: elicited CTL lines that lysed tumor cells

Compound: YMDGTMSQV [tyrosinase(368–376)(370D)]
- patients developing a positive skin test response [13]: none

Compound: gp160 (843–855) (LRMKAYRAIRHIPR)
- Number (mean number of spots and standard deviation in triplicate wells) [6, 15]: 5 (+/−3.6)
- Size (mean spot size and standard deviation) [6, 15]: 0.019 (+/−0.01) mm^2
- Percentage of cells CD3^+/IFN-γ^+ [14]: 2.05%
- Percentage of cells CD4^+ [14]: 31.03%
- Percentage of cells CD4^+/IFN-γ^+ [14]: 0.94%
